Tests used:
[1] = tested on: Jc1 and HCV strains Con1 (GT1b), J8 (GT2b), S52 (GT3a), ED43 (GT4a), SA13 (GT5a), HK6a (GT6a) and QC69 (GT7a); format: cell-based; details: Jc1 versus GT1b, 2b, 3a, 4a, 5a, 6a, 7a strains
JcR2a/J8-E1-R3.2_4 aa = format: cell-based, Hepatitis C virus; details: M290A, W299N, V301T, P310Q
J8 (GT2b) = format: cell-based
JcR2a = test: HCV whole life cycle compound screening assay; format: cell-based, Hepatitis C virus; details: Jc1 reporter virus, versus flunarizine
JcR2a-Flun-R [2] = format: cell-based
JcR2a-E1 R4 = format: cell-based; details: 313-383
JcR2a/J8-E1_R1 = format: cell-based; details: Aa 192-230
Jc1R2a/J8-E1 chimera = format: cell-based; details: entire E1 replaced
Jc1/J8-E1_R3 = format: cell-based; details: Aa 267-312
[3] = tested on: low pH-triggered HCV cell membrane fusion; details: earlier work of the applicant, data not shown; cited from earlier work
JcR2a-Flun-R [4] = details: Jc1 passaged in presence of flunarizine; Perin et al.; cited from earlier work
[5] = tested on: low pH-triggered HCV cell membrane fusion; test: Fusion at the plasma membrane assay; format: cell-based, Hepatitis C virus; details: 5 nM Con A, pH 5.0 wash 5 minutes

Compound | strain-dependent antiviral activity (in words) [1] | resistance of JcR2a/J8-E1-R3.2_4 aa, shift of the IC50 versus parental JcR2a (JcR2a/J8-E1-R3.2_4 aa) | resistance of J8 (GT2b) (in words) (J8 (GT2b)) | antiviral activity, effect of the substituent (SAR, in words) (JcR2a) | other results
CN1CCN(C(c2ccccc2)c2ccc(Cl)cc2)CC1 (centres unmarked) [chlorcyclizine] | preferentially inhibited Jc1 | 6 fold | pronounced resistance |  | 
p-methoxy-flunarizine |  |  | pronounced resistance | beneficial | dose at which cell viability of treated cells was reduced by 50% (Huh-7.5-fluc cells): 9.6 µM
C/C(=C\c1ccccc1)CN1CCN(C(c2ccc(F)cc2)c2ccc(F)cc2)CC1 [entry 20] |  |  |  | not beneficial | 
COc1cc(/C=C/C(=O)CC(=O)/C=C/c2ccc(O)c(OC)c2)ccc1O [curcumin] | similarly active against all tested viruses | not |  |  | inhibition of JcR2a-Flun-R compared with JcR2a (in words) (JcR2a-Flun-R [2]): equally inhibited
Fc1ccc(C(c2ccc(F)cc2)N2CCN(C/C=C/c3ccccc3)CC2)cc1 [flunarizine] | preferentially inhibited Jc1 | 8 fold | pronounced resistance |  | susceptibility of chimera with J8 E1 region R4 (in words) (JcR2a-E1 R4): partial resistance; susceptibility of chimera with J8 E1 region R1 (in words) (JcR2a/J8-E1_R1): partial resistance; susceptibility of chimeric virus with J8-derived E1 (in words) (Jc1R2a/J8-E1 chimera): resistant; susceptibility of chimera with J8 E1 region R3 (in words) (Jc1/J8-E1_R3): resistance profile comparable to Jc1 encoding the flunarizine resistance mutations; antiviral activity when applied only during the 5 minute low pH wash [3]: full antiviral activity; resistance conferred by three mutations in E1 and E2 (JcR2a-Flun-R [4]): ca. 50 fold
COc1ccc(-c2cc(=O)c3c(O)c(O)c(OC)cc3o2)cc1 [BJ486K] |  |  |  |  | inhibition of HCV infection when administered only during the low pH washing step [5]: did not inhibit HCV infection

From patent US20220024879A1, “COMPOUNDS FOR TREATMENT OF HEPACI VIRUS INFECTION AND METHOD FOR DETERMINING THERAPY OF HEPACI VIRUS INFECTION, IN PARTICULAR, HCV INFECTION” (priority 2018, published 2022)
